In US10576151B2, “Ciclopirox for use in modulation of glucose homeostasis” (UNIVERSITY OF SOUTH CAROLINA, priority 2015, dated 2020):
“Also recorded” adds a separate entry of the source.

Assays:
[1] = system: p21-deficient mice; test: Fasting glucose in diet-induced diabetic p21-deficient mice; assay type: in vivo; details: CPX as in wt controls, delayed response (FIG. 5A)
Text: In Vivo Analysis of Anti-Diabetic Effect of CPX. Mice were randomly grouped. A group of C57BI/6 mice 4-5 weeks old, were fed with either a solution of 10% sucrose and a diet containing 40% kcal as a high-fat diet (HFD; Open Source Diets (New Brunswick, N.J., USA) D12451, 40% calories/fat with free access to (10%) sweetened water (sucrose) or a control chow diet containing 10% of kcal as fat (low-fat diet) and drinking water with no added sucrose (control). Mice with a glucose concentration exceeding 180 mg/dL were considered diabetic, after 2 consecutive glucose measurements. The blood glucose levels were measured using an Accu-Check blood glucose monitor (Roche, Indianapolis, Ind., USA) using blood sample collected from the tail vein. Diabetic mice were treated with either treated daily for 20 days by oral gavages with CPX (25 mg/kg) prepared in a solution (4% ethanol, 5.2% Tween 80, and 5.2% PEG 400) or vehicle control. […]
Glucose Level Determination and Intraperitoneal Insulin Tolerance Test. […] Glucose levels of mice were measured by an Accu-Chek Active meter (ROCHE) with blood sample obtained from the tail. […] For insulin resistance test, mice were injected intraperitoneally at a dose of 0.75 units/kg with human insulin (0.75 U/kg body weight; Sigma) at different time points as indicated, as for glucose tolerance after insulin injection and blood glucose was measured as described. […]

[2] = system: BiP, GRP94 and CHOP; test: Western blot of ER stress markers in islets in culture; assay type: cell-based, mouse
Description: Western Blotting. The mouse islets were treated with CPX 20 μM for 24 h and lysed in RIPA buffer [50 mM Tris, pH 7.2; 150 mM NaCl; 1% sodium deoxycholate; 0.1% SDS; 1% Triton-X 100; 10 mM NaF; 1 mM Na3VO4; protease inhibitor cocktail (1:1000, Sigma, St. Louis, Mo.)] and were subjected to immunoblot analysis by standard methods. Proteins were resolved on a 10% SDS-PAGE and transferred to a nitrocellulose membrane (Bio-Rad, Hercules, Calif.). Membranes were probed overnight with GADD153 (F-168), sc-575 from Santa Cruz Biotechnology (1:50); p21 (F-5), sc-6246 from Santa Cruz Biotechnology (1:200); actin, clone C4 MAB1501 from Millipore (Billerica, Mass., USA) (1:2000); BiP antibody (cat. no. 3183) from Cell Signaling (Danvers, Mass., USA) (1:1000); GRP94 antibody (H-212), sc-11402 from Santa Cruz Biotechnology (1:500); insulin rabbit polyclonal H-86, sc-9168 from Santa Cruz Biotechnology (1:500) antibodies followed by incubation with horseradish peroxidase-conjugated (HRP) anti-mouse (1:10000), goat anti-rabbit IgG (1:10000, Santa Cruz biotechnology Inc., Santa Cruz, Calif., USA) for 1 hr. After incubation with enhanced chemiluminescence reagents (Santa Cruz biotechnology Inc.), membranes were analyzed using an Image J software for Windows.
In order to understand better how CPX operates in β cells, it was tested to determine if it affected the efficiency by which insulin is produced following glucose stimulation. […] In view of the antidiabetic activity of CPX in vivo, the inhibition of insulin release appears contradictory. […]
While modulation of insulin release by CPX constitutes a challenging mechanism by which CPX may affect ER stress, how CPX regulates insulin expression remains obscure. […] To test this hypothesis, islets were exposed to iron citrate, alone or combined with CPX, and the levels were recorded of chaperones BiP, GRP94 and CHOP, as well as of insulin.

[3] = system: C57BI/6 mice; test: Intraperitoneal insulin tolerance (insulin sensitivity) test; assay type: in vivo
Description: Glucose Level Determination and Intraperitoneal Insulin Tolerance Test. Mice were fasted for 6 h. Glucose levels of mice were measured by an Accu-Chek Active meter (ROCHE) with blood sample obtained from the tail. For glucose tolerance, mice were injected i.p. with 2 g glucose/kg blood glucose was checked at different time points as indicated (at either 0, 30, 60, 90, 120, 160, 220 min.). For insulin resistance test, mice were injected intraperitoneally at a dose of 0.75 units/kg with human insulin (0.75 U/kg body weight; Sigma) at different time points as indicated, as for glucose tolerance after insulin injection and blood glucose was measured as described.

[4] = system: pancreatic islets; test: Pancreatic islet numbers by histology (H&E); assay type: in vivo; details: diabetic mice treated with CPX (FIG. 8)
Text: In Vivo Analysis of Anti-Diabetic Effect of CPX. Mice were randomly grouped. A group of C57BI/6 mice 4-5 weeks old, were fed with either a solution of 10% sucrose and a diet containing 40% kcal as a high-fat diet (HFD; Open Source Diets (New Brunswick, N.J., USA) D12451, 40% calories/fat with free access to (10%) sweetened water (sucrose) or a control chow diet containing 10% of kcal as fat (low-fat diet) and drinking water with no added sucrose (control). Mice with a glucose concentration exceeding 180 mg/dL were considered diabetic, after 2 consecutive glucose measurements. The blood glucose levels were measured using an Accu-Check blood glucose monitor (Roche, Indianapolis, Ind., USA) using blood sample collected from the tail vein. Diabetic mice were treated with either treated daily for 20 days by oral gavages with CPX (25 mg/kg) prepared in a solution (4% ethanol, 5.2% Tween 80, and 5.2% PEG 400) or vehicle control. Pancreata were preserved in 10% buffered formalin for later histological examination. Immunostaining. Pancreatic tissue samples were fixed at 10% buffered formalin, processed a defined paraffin-embedding procedure before embedding in paraffin, sectioning into 4-μm tissue sections, and stained with hematoxylin and eosin by standard methods.

[5] = system: pancreatic islets; test: Insulin release from islets following glucose stimulation; assay type: cell-based, mice; details: insulin in the media (FIG. 11A)
Description: In order to understand better how CPX operates in β cells, it was tested to determine if it affected the efficiency by which insulin is produced following glucose stimulation. […] In view of the antidiabetic activity of CPX in vivo, the inhibition of insulin release appears contradictory. Thus, it was hypothesized that reduced insulin secretion may be linked to reduced ER stress and blunted unfolded protein response, which in turn could explain in the long run the increased survival and functionality of the animals that received CPX. To test this hypothesis, islets were exposed to CPX and high glucose and the levels were tested of chaperones BiP, GRP94 and CHOP that reflect the intensity of the UPR. […] In line with these observations and consistently with the insulin levels in the media (FIG. 11 at A) were also the levels of insulin in the β islets (FIG. 11 at B).

Cc1cc(C2CCCCC2)n(O)c(=O)c1 [CPX, 6-cyclohexyl-1-hydroxy-4-methylpyridin-2(1H)-one]
glucose regulation (fasting glucose) [1]: responded significantly to CPX in terms of glucose regulation
ER stress induction (BiP, GRP94, CHOP) ([2]; islets, iron citrate with concomitant CPX (FIG. 12A)): compromised the effects of iron citrate
levels of BiP, GRP94 and CHOP ([2]; wt islets, high glucose with CPX (FIG. 11)): alleviated the levels of BiP, GRP94 and CHOP
insulin sensitivity ([3]; diabetic mice, CPX vs saline (FIG. 6B)): restored the response of diabetic mice to acute administration of glucose
insulin sensitivity ([3]; non-diabetic wt mice on normal diet, CPX vs saline (FIG. 7C)): not affected
islet numbers [4]: increased significantly
release of insulin [5]: strong inhibition of insulin production; also recorded: suppressed the release of insulin
